Assay results from a melting point compilation (Tetko et al.; mined from patent text by program, amines drawn as free bases though some values may be those of a salt).

SMILES | melting point
Cc1cc(C(=O)Nc2ccn3cc(-c4ccccc4)nc3n2)ccn1 | 255 to 257 °C
CC1=NN(C(=O)NS(=O)(=O)c2c(F)cccc2F)CC1 | 196 °C
CC1(OC(=O)C#CC2C(C(=O)OC(C#N)c3cccc(Oc4ccccc4)c3)C2(C)C)CCC1 (centres undefined) | 76 °C
COc1cc([N+](=O)[O-])c(CCCCC(=O)O)c([N+](=O)[O-])c1O | 168 to 170 °C
CCCOc1ncc(NC(C)=O)cc1-c1nc2c(CCC)nn(C)c2c(=O)[nH]1 | 252 to 253 °C
CCOC(=O)C1=C(C)NC(C)=C(C(=O)OCC)C1c1ccccc1O | 159 to 161 °C
O=S(c1[nH]c(Br)c(Br)c1-c1ccc(Cl)cc1)C(F)(F)F (centres undefined) | 166 to 168 °C
CC(C)C(=O)c1ccc2c(c1)CC(N1C(=O)c3ccccc3C1=O)C2 (centres undefined) | 138 to 140 °C
COc1cccc(NC(=O)c2cccc([N+](=O)[O-])c2)c1 | 120 to 122 °C
COc1ccc(C(=O)Sc2ccc(C(=O)O)cc2)cc1C1(C)CCCCC1 | 216 to 218 °C
CC1COc2c(N3CCC(n4cncn4)C3)c(F)cc3c(=O)c(C(=O)O)cn1c23 (single isomer, unassigned; (-)) | 229 to 231 °C
COC(=O)c1cc(Cl)ccc1NC(=O)c1cc(OC)c(OC)c(OC)c1 | 179 to 180 °C
CC(C)Cn1cnc2c(N)nc3ccc(CCCN4CCCC4=O)cc3c21 | 174 to 175 °C
CCOC(=O)/C=C/c1ccc(OCCCC#N)cc1Oc1ncc(C(F)(F)F)cc1Cl | 106 to 107 °C
C[C@@H]1CN(C(=O)OC(C)(C)C)Cc2cc3cc(Br)c(F)cc3n21 | 116 to 118 °C
CCN(CC)CCNC(=O)c1[nH]c(-c2ccc(Cl)cc2)c2ccccc12 | 51 to 54 °C
O=C(OCCBr)N1CCCSC1=C[N+](=O)[O-] | 79 to 81 °C
CC1(C)Oc2ccc(OC(F)(F)F)cc2[C@@H](NC(=O)c2ccccc2[N+](=O)[O-])[C@@H]1O | 189 to 190 °C
c1ccc(-c2ccc(OCC3CO3)cc2)cc1 (centres undefined) | 80.2 to 82.9 °C
CCOC(=O)C(Cc1ccc(C(F)(F)F)cc1)C(=O)c1ccc(Oc2ccccc2)cc1 (centres undefined) | 67 to 68 °C
CCOC(=O)c1cc2c3ccccc3n(Cc3ccccc3)c2nc1N1CCOCC1 | 151 to 152 °C
CSCCCC1(C(=S)N[C@@H](Cc2ccc(NC(=O)c3c(Cl)cccc3Cl)cc2)C(=O)O)CCC1 | 186 to 188 °C
CCOc1cc2c(Cl)ccnc2nc1C | 164 °C

SMILES | melting point
O=C(O)c1csc2ccc(OS(=O)(=O)c3ccccc3)cc12 | 202 to 203 °C
O=c1c(Br)cc(Cl)cn1Cc1ccccc1 | 108 to 110 °C
COC(=O)CC(c1ccc(OC)c(OC)c1)N1C(=O)c2ccccc2C1=O (centres undefined) | 114 to 116 °C
Clc1ccc2nc(NC3CCCCC3)n3nc(-c4ccco4)nc3c2c1 | 158 to 160 °C
N#Cc1cc(Cl)cc(Cl)c1Cl | 77 to 78 °C
CCCN(CCC)C(=O)C(CO)Nc1nc(-c2ccccc2)nc(C)c1C (centres undefined) | 132 to 133 °C
Cc1ccc(S(=O)(=O)OCC2Cc3cccc(-c4ccccc4C)c3O2)cc1 (centres undefined) | 98 to 100 °C
CC(=O)SCC(CC(C)C)C(=O)Nc1cccc(C(=O)O)c1 (centres undefined) | 184 to 186 °C
CCN1C(=O)N(c2ccc([N+](=O)[O-])c(C(F)(F)F)c2)C(=O)C1(C)C | 110 to 111 °C
CC(=O)Nc1ccc(C)c(NCCS(=O)(=O)F)c1 | 154 to 155 °C
O=C(C=Cc1ccc(O)cc1)N1CCc2c([nH]c3ccccc23)C1c1ccc2c(c1)OCO2 (centres undefined) | 175 °C
Cc1[nH]c2c(Cl)cc(Nc3cnccc3N)cc2c1C | 108 to 110 °C
O=c1c2c(nc3ccc(Br)cn13)C(=Cc1ccc(Cl)cc1)CC2 | 233 to 234 °C
CN1CCN(CC(=O)N2c3ccccc3C(=S)Nc3cccnc32)CC1 | 240 to 241 °C
O=c1ccn2ncc(-c3cccs3)c2[nH]1 | 231 to 232 °C
CC(C)(C)OC(=O)N[C@@H]1C(=O)N(OCC(=O)OCc2ccc([N+](=O)[O-])cc2)[C@@H]1COC(N)=O | 189 to 191 °C
O=C(NCC(=O)N1c2ccccc2N(Cc2ccccc2)C(=O)[C@H]2CCC[C@H]21)c1ccc2c(c1)OCO2 (relative stereo) | 174 to 176 °C
COc1ccc2c(Cc3ccc(OC4CCCCC4N(C)C)cc3)c(-c3ccc(OCCN4CCCC4)cc3)sc2c1 (centres undefined) | 58 to 61 °C
NC1=NC(c2ccc(C(F)(F)F)cc2)Nc2cccc(F)c21 (centres undefined) | 220 to 222 °C
COCCn1cc2c(C3C(=O)Nc4ccc(Br)cc43)nc(NCCCN(C)C)nc2n1 (centres undefined) | 297 to 298 °C
CN(C)C(=O)COc1ccc2c(-c3ccccc3F)noc2c1Cl | 116 °C
BrCc1noc2cc3ccccc3cc12 | 111 to 113 °C
COC(=O)C(O)=Cc1ccc(OCc2ccc(F)cc2)cn1 | 131 to 132 °C

SMILES | melting point
Cc1cc(C)c(C2Cc3cc(NC(=O)CC(C)(C)C)cc(Cc4ccc(C(C)C)cc4)c3O2)cc1CO (centres undefined) | 136 to 137 °C
CC(C)(C)Cc1ccc(C(=O)O)cc1 | 191 to 193 °C
CCC1C(=O)N2CCCC(C(=O)OC(C)(C)C)N2C1=O (centres undefined) | 93 to 95 °C
CCCCCCCCCCCCCCCCOc1cc(O)c(NC(C)=O)cc1C12CC3CC(CC(C3)C1)C2 | 146 to 148 °C
CC(C)Cc1ccccc1Sc1c(O)cc(-c2cccc(-c3ccccc3)c2)oc1=O | 187 to 188 °C
COc1cc(CC(=O)OC(C)(C)C)ccc1NC(=O)Nc1ccccc1C(F)(F)F | 131 to 133 °C
Cc1c(CCN(C)C(=O)OC(C)(C)C)c2cc(S(=O)(=O)c3ccccc3)ccc2n1C | 147 to 149 °C
CC(C)C1(C)CCNC1=O (centres undefined) | 88 to 90 °C
CC(=O)OC[C@H]1OC(OC(C)=O)[C@H](OC(C)=O)[C@@H](F)[C@@H]1OC(C)=O (some centres undefined) | 115 to 121 °C
COc1cc(COc2nn(CCO)cc2C=O)ccc1OCc1nc(-c2ccco2)oc1C | 149 to 150 °C
Cc1cc(C)c(C(=O)P(=O)(Cc2ccccc2)c2ccccc2)c(C)c1 (centres undefined) | 113 to 114 °C
CSc1cccc2c1CCn1cc(-c3ccccc3)nc1C2OC1CCN(C)CC1 (centres undefined) | 134 °C
COc1ccc(COc2cccc(C(=O)Nc3ccc(C#N)cc3)c2)cc1 | 147 to 148 °C
CS(=O)(=O)c1ccc(C(CC2CCCC2)C(=O)Nc2ccc3ccccc3n2)cc1Br (centres undefined) | 95 to 100 °C
FC(F)(F)c1ccc2nc(N3CCN(c4ncccc4C(F)(F)F)CC3)[nH]c2c1 | 221 to 224 °C
N#Cc1cnn2c1NCCC2c1cccc(C(F)(F)F)c1 (centres undefined) | 192 to 194 °C
Cn1ncc(C(=O)N2CCC2)c1C(=O)Nc1ccn2nc(-c3cccc(F)c3)nc2c1 | 232 to 236 °C
COC1(c2cc(F)cc(Sc3ccc(C(F)(F)c4ccc(F)cc4)cc3)c2)CCOCC1 | 54 to 57 °C
COc1ccc(Cl)cc1C1(F)C(=O)Nc2cc(I)ccc21 (centres undefined) | 205 to 210 °C
CC(C)(C)c1cc(C=C2OC(NC(=N)N)=NC2=O)cc(C(C)(C)C)c1O | 258 °C
COc1cc(-c2nc3ccccc3[nH]2)cc([N+](=O)[O-])c1O | 198 to 200 °C
Cc1c(SCCCN2CCN(Cc3ccc(Cl)s3)CC2)ccnc1CS(=O)c1nc2ccccc2[nH]1 (centres undefined) | 54 to 58 °C
N#CC(c1cccc(F)c1)N1CCOCC1 (centres undefined) | 74 to 75 °C
